Measurements: ChEMBL document CHEMBL1201862, “PubChem BioAssay data set” (2004)
Active and inactive are the calls of the source.

Legend:
[1] = inhibitors of SNCA 5'UTR-driven reporter translation, confirmation, H4 neuroglioma cells, luminescence (AID 1988); type: functional, cell-based
[2] = inhibitors of firefly luciferase expression or activity, dose response, H4 neuroglioma cells, luminescence (AID 1990); type: functional, cell-based
HeLa = experiment: HeLa cell cytotoxicity, dose response, cytotoxicity control, ATP luminescence, cherry-pick samples (AID 687004); type: functional, cell-based; details: Homo sapiens
[3] = Luminescence Cell-Based Dose Response HTS to Identify Inhibitors of 5'UTR Stem-Loop Driven Prion Protein mRNA Translation in H4 Neuroglioblastoma Cells. [Related pubchem assays: 1827 (Project Summary), 1813 (Primary HTS)]; type: functional
INS1 = experiment: beta cell apoptosis inhibitors, cytokine rescue, dose response, luminescence, retest (AID 449756); type: functional, cell-based; details: Rattus norvegicus;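 note: cell death triggered by IL-1 beta plus TNF-alpha plus IFN-gamma mixture; protective hits raise ATP signal compared with cytokine alone wells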
[4] = miR-122 activators in hepatoma reporter cells, dose response, cell-based, Huh7 psiCHECK-miR122, Renilla luciferase, cherry-picked (AID 651956); type: functional;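 note: huh7 hepatoma cells stably carrying a psiCHECK-2 miR-122 sensor plasmid; renilla luciferase signal reporting endogenous miR-122 activity after 48 h compound exposure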
[5] = HEK293T cytotoxicity, dose response, cytotoxicity control for miR-122 modulator project, cell-based, inhibitor set, cherry-pick, set 2 (AID 720697); type: functional
[6] = target: T1, DNA repair protein RAD52 homolog (Homo sapiens, UniProt P43351); type: functional, biochemical
T1 sequence (P43351 whole entry): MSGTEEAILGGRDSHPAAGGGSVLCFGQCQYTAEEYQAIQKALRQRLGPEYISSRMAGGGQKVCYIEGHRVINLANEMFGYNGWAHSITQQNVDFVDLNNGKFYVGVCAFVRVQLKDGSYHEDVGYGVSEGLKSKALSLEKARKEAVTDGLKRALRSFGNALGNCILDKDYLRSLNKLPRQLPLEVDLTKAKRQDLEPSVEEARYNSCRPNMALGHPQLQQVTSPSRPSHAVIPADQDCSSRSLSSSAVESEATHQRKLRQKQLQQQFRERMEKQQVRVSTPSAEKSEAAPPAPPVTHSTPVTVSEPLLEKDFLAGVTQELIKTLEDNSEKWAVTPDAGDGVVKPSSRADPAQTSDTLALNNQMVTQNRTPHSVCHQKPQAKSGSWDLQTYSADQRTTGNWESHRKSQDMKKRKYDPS

[7] = HEK293T cytotoxicity, dose response, cytotoxicity control for miR-122 modulator project, cell-based, activator set, cherry-pick (AID 720690); type: functional;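 note: HEK293T human cells scored for general mammalian cytotoxicity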
Beta-galactosidase = Beta-galactosidase (Escherichia coli, UniProt Q8VNN2); experiment: Dose response counterscreen for EBI2 assay utilizing the enzyme, b-galactosidase.; type: functional
[8] = target: T2, Beta-2 adrenergic receptor (Homo sapiens, UniProt P07550); experiment: beta2AR agonists driving receptor internalization, dose response, cell-based, FAP fluorogen, flow cytometry, cherry pick 1 (AID 588763); type: functional
[9] = target: T2, Beta-2 adrenergic receptor; experiment: Dose response for HTS for Beta-2AR agonists via FAP method from Powderset3.; type: functional
[10] = target: Broad substrate specificity ATP-binding cassette transporter ABCG2 (Homo sapiens, UniProt Q9UNQ0); experiment: ABCG2 efflux pump inhibitors, dose response, Ig-MXP3 cells, flow cytometry (AID 1690); type: functional
Prothrombin = Prothrombin (Homo sapiens, UniProt P00734); experiment: Thrombin 1536 HTS Dose Response Confirmation. [Related pubchem assays: 1046 (Thrombin 1536 HTS; hits were confirmed in this assay)]; type: functional
Major prion protein = Major prion protein (Homo sapiens, UniProt P04156); type: functional, cell-based
[11] = target: Peroxisome proliferator-activated receptor gamma/Nuclear receptor coactivator 2 (Homo sapiens, UniProt P37231); experiment: (§1) TR-FRET dose response biochemical High Throughput Screening assay for agonists of the steroid receptor coactivator 2 (SRC-2) recruitment by the peroxisome proliferator-activated receptor gamma (PPAR gamma): non-selective agonists. [Related pubchem assays: 1297, 1032 ]; type: functional
[12] = target: Peroxisome proliferator-activated receptor gamma/Nuclear receptor coactivator 1 (Homo sapiens, UniProt P37231); experiment: as §1, with “1 (SRC-1)” for “2 (SRC-2)”, “assays (depositor defined):AID1300, AID1808, AID504735, AID631]” for “assays: 1297, 1032 ]”; type: protein assay
[13] = target: DNA dC->dU-editing enzyme APOBEC-3A (Homo sapiens, UniProt P31941); experiment: APOBEC3A DNA deaminase inhibitors, dose response, biochemical (AID 504722); type: functional
[14] = target: DNA dC->dU-editing enzyme APOBEC-3G (Homo sapiens, UniProt Q9HC16); experiment: Dose Response confirmation of small molecule APOBEC3G DNA Deaminase Inhibitors via a fluorescence-based single-stranded DNA deaminase assay. [Related pubchem assays (depositor defined):AID493012, AID493028]; type: functional
[15] = target: Peroxisome proliferator-activated receptor gamma/Nuclear receptor coactivator 3 (Homo sapiens, UniProt P37231); experiment: as §1, with “3 (SRC-3)” for “2 (SRC-2)”, “1301 (Confirmation screen.), 1048 (Primary screen.)]” for “1297, 1032 ]”; type: functional
[16] = target: FAD-linked sulfhydryl oxidase ALR (Homo sapiens, UniProt P55789); experiment: inhibitors of human ALR sulfhydryl oxidase, dose response, biochemical, H2O2 detection, luminescence, cherry-pick (AID 493248)

CC(=O)c1sc(NC(=O)C2(F)C(F)(F)C(F)(F)C(F)(F)C(F)(F)C2(F)F)nc1C
EC50 [1]: 32.2 µM (active)
EC50 [2]: > 120 µM (not active)
AC50 (HeLa): 22.6 µM (active)
EC50 [3]: > 120 µM (not active)
AC50 (INS1): 4.23 µM (active)

NCC12CC3CC(C1)CC(c1ccc(Br)cc1)(C3)C2
AC50 [4]: 16.3 µM (active)
AC50 [5]: 5.67 µM (active)
AC50 [6]: 32 µM (active)
AC50 [7]: 17.1 µM (active)

COc1ccc(N2CCN(C(=O)c3ccc4c(c3)CC(c3ccccc3)OC4=O)CC2)cc1 (configuration not stated)
IC50 (Beta-galactosidase): > 80 µM (inactive)

CC(Sc1nc(-c2ccccc2)cc(C(F)(F)F)n1)C(=O)N1CCCCC1 (configuration not stated)
EC50 [8]: 0.214 µM (active)
EC50 [9]: 0.0143 µM (active)

CC(C)C(NS(=O)(=O)c1ccccc1)C(=O)OCc1cc([N+](=O)[O-])cc2c1OCOC2 (configuration not stated)
EC50 [10]: 1.57 µM (active)
IC50 (Prothrombin): > 50 µM (not active)

COc1ccccc1-c1n[nH]c(=S)n1-c1ccccc1
IC50 (Major prion protein): 7.18 µM (active)
EC50 [11]: 6.26 µM (active)
EC50 [12]: 10.5 µM (inactive)
IC50 [13]: > 100 µM (inactive)
IC50 [14]: 4.99 µM (active)
EC50 [15]: > 79.4 µM (not active)
AC50 [16]: 0.058 µM (active)

COc1ccccc1-c1nnc(S)n1-c1ccccc1
IC50 (cells): > 138 µM (inactive)
